Measured values from patent US9469650B2, “Melampomagnolide B derivatives” (BOARD OF TRUSTEES OF THE UNIVERSITY OF ARKANSAS, priority 2013, dated 2016).

Experiments:
UO-31 = experiment: panel of 60 human tumor cell lines, growth inhibition (Renal Cancer); settings: UO-31
NCI-H322M = experiment: panel of 60 human tumor cell lines, growth inhibition (Non-Small Cell Lung Cancer)
SF-539 = experiment: panel of 60 human tumor cell lines, growth inhibition (CNS Cancer); settings: SF-539
COLO 205 = experiment: panel of 60 human tumor cell lines, growth inhibition (Colon Cancer); settings: COLO 205
SR = experiment: panel of 60 human tumor cell lines, growth inhibition (Leukemia)
KM12 = experiment: panel of 60 human tumor cell lines, growth inhibition (Colon Cancer); settings: KM12
UACC-62 = experiment: panel of 60 human tumor cell lines, growth inhibition (Melanoma); settings: UACC-62
HCT-116 = experiment: panel of 60 human tumor cell lines, growth inhibition (Colon Cancer); settings: HCT-116
ACHN = experiment: panel of 60 human tumor cell lines, growth inhibition (Renal Cancer)
NCI/ADR-RES = experiment: panel of 60 human tumor cell lines, growth inhibition (Ovarian Cancer)
SNB-75 = experiment: panel of 60 human tumor cell lines, growth inhibition (CNS Cancer); settings: SNB-75
RXF 393 = experiment: panel of 60 human tumor cell lines, growth inhibition (Renal Cancer); settings: RXF 393
HCC-2998 = experiment: panel of 60 human tumor cell lines, growth inhibition (Colon Cancer); settings: HCC-2998
BT-549 = experiment: panel of 60 human tumor cell lines, growth inhibition (Breast Cancer); settings: BT-549
SN12C = experiment: panel of 60 human tumor cell lines, growth inhibition (Renal Cancer)
SK-MEL-28 = experiment: panel of 60 human tumor cell lines, growth inhibition (Melanoma); settings: SK-MEL-28
MDA-MB-435 = experiment: as above; settings: MDA-MB-435
SNB-19 = experiment: panel of 60 human tumor cell lines, growth inhibition (CNS Cancer); settings: SNB-19
SF-295 = experiment: as above; settings: SF-295

## C=C1C(=O)O[C@H]2[C@H]1CC/C(COC(=O)NC)=C\CC[C@@]1(C)O[C@@H]21 [JVM 2-57]
UO-31; Log10 Concentration −4.0
  Percent Growth: −93%
UO-31; Log10 Concentration −5.0
  Percent Growth: 7%
UO-31; Log10 Concentration −6.0
  Percent Growth: 82%
UO-31; Log10 Concentration −7.0
  Percent Growth: 88%
UO-31; Log10 Concentration −8.0
  Percent Growth: 84%
UO-31; NCI five dose
  GI50: 2.63 µM
  TGI: 1.16E−5
NCI-H322M; Log10 Concentration −4.0
  Percent Growth: −17%
NCI-H322M; Log10 Concentration −5.0
  Percent Growth: 78%
NCI-H322M; Log10 Concentration −6.0
  Percent Growth: 97%
NCI-H322M; Log10 Concentration −7.0
  Percent Growth: 94%
NCI-H322M; Log10 Concentration −8.0
  Percent Growth: 98%
NCI-H322M; NCI five dose
  GI50: 19.7 µM
  TGI: 6.62E−5
SF-539; Log10 Concentration −4.0
  Percent Growth: −92%
SF-539; Log10 Concentration −5.0
  Percent Growth: 22%
SF-539; Log10 Concentration −6.0
  Percent Growth: 88%
SF-539; Log10 Concentration −7.0
  Percent Growth: 91%
SF-539; Log10 Concentration −8.0
  Percent Growth: 97%
SF-539; NCI five dose
  GI50: 3.8 µM
  TGI: 1.57E−5
COLO 205; Log10 Concentration −4.0
  Percent Growth: −94%
COLO 205; Log10 Concentration −5.0
  Percent Growth: −8%
COLO 205; Log10 Concentration −6.0
  Percent Growth: 95%
COLO 205; Log10 Concentration −7.0
  Percent Growth: 97%
COLO 205; Log10 Concentration −8.0
  Percent Growth: 103%
COLO 205; NCI five dose
  GI50: 2.73 µM
  TGI: 8.33E−6
COLO 205; read-out: LC50, NCI five dose
  CC50: 30.8 µM
SR; Log10 Concentration −4.0
  Percent Growth: −45%
SR; Log10 Concentration −5.0
  Percent Growth: 4%
SR; Log10 Concentration −6.0
  Percent Growth: 77%
SR; Log10 Concentration −7.0
  Percent Growth: 96%
SR; Log10 Concentration −8.0
  Percent Growth: 101%
SR; NCI five dose
  GI50: 2.33 µM
  TGI: 1.21E−5
KM12; Log10 Concentration −4.0
  Percent Growth: −92%
KM12; Log10 Concentration −5.0
  Percent Growth: 73%
KM12; Log10 Concentration −6.0
  Percent Growth: 99%
KM12; Log10 Concentration −7.0
  Percent Growth: 97%
KM12; Log10 Concentration −8.0
  Percent Growth: 98%
KM12; NCI five dose
  GI50: 13.8 µM
  TGI: 2.78E−5
UACC-62; Log10 Concentration −4.0
  Percent Growth: −86%
UACC-62; Log10 Concentration −5.0
  Percent Growth: 35%
UACC-62; Log10 Concentration −6.0
  Percent Growth: 86%
UACC-62; Log10 Concentration −7.0
  Percent Growth: 99%
UACC-62; Log10 Concentration −8.0
  Percent Growth: 100%
UACC-62; NCI five dose
  GI50: 5.11 µM
  TGI: 1.95E−5
HCT-116; Log10 Concentration −4.0
  Percent Growth: −98%
HCT-116; Log10 Concentration −5.0
  Percent Growth: 3%
HCT-116; Log10 Concentration −6.0
  Percent Growth: 88%
HCT-116; Log10 Concentration −7.0
  Percent Growth: 93%
HCT-116; Log10 Concentration −8.0
  Percent Growth: 102%
HCT-116; NCI five dose
  GI50: 2.8 µM
  TGI: 1.07E−5
ACHN; Log10 Concentration −4.0
  Percent Growth: −83%
ACHN; Log10 Concentration −5.0
  Percent Growth: 7%
ACHN; Log10 Concentration −6.0
  Percent Growth: 84%
ACHN; Log10 Concentration −7.0
  Percent Growth: 93%
ACHN; Log10 Concentration −8.0
  Percent Growth: 98%
ACHN; NCI five dose
  GI50: 2.78 µM
  TGI: 1.19E−5
NCI/ADR-RES; Log10 Concentration −4.0
  Percent Growth: −27%
NCI/ADR-RES; Log10 Concentration −5.0
  Percent Growth: 60%
NCI/ADR-RES; Log10 Concentration −6.0
  Percent Growth: 99%
NCI/ADR-RES; Log10 Concentration −7.0
  Percent Growth: 101%
NCI/ADR-RES; Log10 Concentration −8.0
  Percent Growth: 95%
NCI/ADR-RES; NCI five dose
  GI50: 13.1 µM
  TGI: 4.89E−5
SNB-75; Log10 Concentration −4.0
  Percent Growth: −41%
SNB-75; Log10 Concentration −5.0
  Percent Growth: 55%
SNB-75; Log10 Concentration −6.0
  Percent Growth: 78%
SNB-75; Log10 Concentration −7.0
  Percent Growth: 76%
SNB-75; Log10 Concentration −8.0
  Percent Growth: 83%
SNB-75; NCI five dose
  GI50: 11.2 µM
  TGI: 3.72E−5
RXF 393; Log10 Concentration −4.0
  Percent Growth: −76%
RXF 393; Log10 Concentration −5.0
  Percent Growth: −2%
RXF 393; Log10 Concentration −6.0
  Percent Growth: 75%
RXF 393; Log10 Concentration −7.0
  Percent Growth: 107%
RXF 393; Log10 Concentration −8.0
  Percent Growth: 99%
RXF 393; NCI five dose
  GI50: 2.12 µM
  TGI: 9.35E−6
HCC-2998; Log10 Concentration −4.0
  Percent Growth: −81%
HCC-2998; Log10 Concentration −5.0
  Percent Growth: 65%
HCC-2998; Log10 Concentration −6.0
  Percent Growth: 107%
HCC-2998; Log10 Concentration −7.0
  Percent Growth: 91%
HCC-2998; Log10 Concentration −8.0
  Percent Growth: 94%
HCC-2998; NCI five dose
  GI50: 12.7 µM
  TGI: 2.80E−5
BT-549; Log10 Concentration −4.0
  Percent Growth: −96%
BT-549; Log10 Concentration −6.0
  Percent Growth: 74%
BT-549; Log10 Concentration −7.0
  Percent Growth: 86%
BT-549; Log10 Concentration −8.0
  Percent Growth: 105%
BT-549; NCI five dose
  GI50: 2.13 µM
  TGI: 9.96E−6
SN12C; Log10 Concentration −4.0
  Percent Growth: −59%
SN12C; Log10 Concentration −5.0
  Percent Growth: 28%
SN12C; Log10 Concentration −6.0
  Percent Growth: 93%
SN12C; Log10 Concentration −7.0
  Percent Growth: 97%
SN12C; Log10 Concentration −8.0
  Percent Growth: 96%
SN12C; NCI five dose
  GI50: 4.57 µM
  TGI: 2.09E−5
SK-MEL-28; Log10 Concentration −4.0
  Percent Growth: −79%
SK-MEL-28; Log10 Concentration −5.0
  Percent Growth: 24%
SK-MEL-28; Log10 Concentration −6.0
  Percent Growth: 91%
SK-MEL-28; Log10 Concentration −7.0
  Percent Growth: 91%
SK-MEL-28; Log10 Concentration −8.0
  Percent Growth: 98%
SK-MEL-28; NCI five dose
  GI50: 4.11 µM
  TGI: 1.72E−5
MDA-MB-435; Log10 Concentration −4.0
  Percent Growth: −81%
MDA-MB-435; Log10 Concentration −5.0
  Percent Growth: 32%
MDA-MB-435; Log10 Concentration −6.0
  Percent Growth: 91%
MDA-MB-435; Log10 Concentration −7.0
  Percent Growth: 93%
MDA-MB-435; Log10 Concentration −8.0
  Percent Growth: 99%
MDA-MB-435; NCI five dose
  GI50: 5.01 µM
  TGI: 1.92E−5
SNB-19; Log10 Concentration −4.0
  Percent Growth: −38%
SNB-19; Log10 Concentration −5.0
  Percent Growth: 74%
SNB-19; Log10 Concentration −6.0
  Percent Growth: 92%
SNB-19; Log10 Concentration −7.0
  Percent Growth: 95%
SNB-19; Log10 Concentration −8.0
  Percent Growth: 94%
SNB-19; NCI five dose
  GI50: 16.4 µM
  TGI: 4.59E−5
SF-295; Log10 Concentration −4.0
  Percent Growth: −30%
SF-295; Log10 Concentration −5.0
  Percent Growth: 76%
SF-295; Log10 Concentration −6.0
  Percent Growth: 93%
SF-295; Log10 Concentration −7.0
  Percent Growth: 90%
SF-295; Log10 Concentration −8.0
  Percent Growth: 97%
SF-295; NCI five dose
  GI50: 17.5 µM
  TGI: 5.21E−5
